Measured values published in patent publication US10807970B2 (priority 2016, dated 2020).

Each molecule was assayed against human σ1 receptor (Homo sapiens, UniProt Q99720) (assay: Human σ1 receptor radioligand assay ([3H](+)-pentazocine, transfected HEK-293 membranes)). Conditions: one class symbol for both Ki-σ1 (human σ1 receptor, A1) and Ki-μ (human μ-opioid receptor, A2).
Chain of human σ1 receptor (Q99720 whole entry): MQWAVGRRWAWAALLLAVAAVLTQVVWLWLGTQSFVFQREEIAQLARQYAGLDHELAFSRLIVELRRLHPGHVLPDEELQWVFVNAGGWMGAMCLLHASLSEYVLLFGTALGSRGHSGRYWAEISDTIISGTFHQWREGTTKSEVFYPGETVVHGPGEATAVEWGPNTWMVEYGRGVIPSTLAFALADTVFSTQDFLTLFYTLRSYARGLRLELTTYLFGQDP
Type: binding
Parameters: μ and σ1 dual binding: key to the marks not given beside the values
Outline: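 Membranes from HEK-293 cells transfected with human σ1 receptor (7 μg) incubated with 5 nM [3H](+)-pentazocine in 50 mM Tris-HCl pH 8, 120 min at 37° C. Non-specific binding defined with 10 μM haloperidol. Bound radioligand separated by filtration, washed with ice-cold 10 mM Tris-HCl pH 7.4, and counted by scintillation.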
`C[C@H]1C[C@@](C(=O)c2ccccn2)(N2CCN(Cc3ccccc3)CC2)CCO1` [Example 155, ((2S,4S)-4-(4-benzylpiperazin-1-yl)-2-methyltetrahydro-2H-pyran-4-yl)(pyridin-2-yl)methanone] was tested, and the “μ and σ1 dual binding” value was “++”.
`CC(C)OCCN1CCN([C@]2(C(=O)c3ccccn3)CCOC2)CC1` [Example 242, (R)-(3-(4-(2-isopropoxyethyl)piperazin-1-yl)tetrahydrofuran-3-yl)(pyridin-2-yl)methanone] was tested, and the “μ and σ1 dual binding” value was “++”.
With `O=C(c1ccccn1)C1(N2CCN(Cc3ccc(F)cc3)CC2)CCOCC1` [Example 181, (4-(4-(4-fluorobenzyl)piperazin-1-yl)tetrahydro-2H-pyran-4-yl)(pyridin-2-yl)methanone] the “μ and σ1 dual binding” value was “++”.
`CC(C)(O)COCCN1CCN(C2(C(=O)c3ccccn3)CCOC(C)(C)C2)CC1` (stereo not shown) [Example 70, (4-(4-(2-(2-hydroxy-2-methylpropoxy)ethyl)piperazin-1-yl)-2,2-dimethyltetrahydro-2H-pyran-4-yl)(pyridin-2-yl)methanone] was tested, and the “μ and σ1 dual binding” value was “++”.
For `CN(Cc1ccccc1)[C@H]1CCN([C@]2(C(=O)c3ccccn3)CCOC(C)(C)C2)C1` [Example 141, ((R)-4-((S)-3-(benzyl(methyl)amino)pyrrolidin-1-yl)-2,2-dimethyltetrahydro-2H-pyran-4-yl)(pyridin-2-yl)methanone], the “μ and σ1 dual binding” value was “++”.
`CC1(N2CCN(Cc3ccccc3)CC2)CCOCC1` [Example 156, 1-Benzyl-4-(4-methyltetrahydro-2H-pyran-4-yl)piperazine] was tested, and the “μ and σ1 dual binding” value was “++”.
With `c1ccc(C2(N3CCN(Cc4ccccn4)CC3)CCOC3(CCCC3)C2)cc1` (stereo not shown) [Example 120, 1-(9-phenyl-6-oxaspiro[4.5]decan-9-yl)-4-(pyridin-2-ylmethyl)piperazine] the “μ and σ1 dual binding” value was “++”.
In the case of `c1ccc(CN2CCC(C3(c4ccccn4)CCOCC3)CC2)cc1` [Example 124, 2-(4-(1-benzylpiperidin-4-yl)tetrahydro-2H-pyran-4-yl)pyridine], the “μ and σ1 dual binding” value is reported as “++”.
In the case of `CC(C)OCCN1CCN(C2(C(=O)c3ccccc3)CCOC(C)(C)C2)CC1` (stereo not shown) [Example 13, (4-(4-(2-isopropoxyethyl)piperazin-1-yl)-2,2-dimethyltetrahydro-2H-pyran-4-yl)(phenyl)methanone], the “μ and σ1 dual binding” value is reported as “++”.
For `CC(C)CCN1CCN(C2(C)CCOC(C)(C)C2)CC1` (stereo not shown) [Example 79, 1-isopentyl-4-(2,2,4-trimethyltetrahydro-2H-pyran-4-yl)piperazine], the “μ and σ1 dual binding” value was “++”.
With `c1ccc(C2(N3CCN(Cc4cccnc4)CC3)CCOC3(CCCC3)C2)cc1` (stereo not shown) [Example 119, 1-(9-phenyl-6-oxaspiro[4.5]decan-9-yl)-4-(pyridin-3-ylmethyl)piperazine] the “μ and σ1 dual binding” value was “++”.

Same assay, conditions: one class symbol for both Ki-σ1 (human σ1 receptor, A1) and Ki-μ (human μ-opioid receptor, A2); read-out: μ and σ1 dual binding
`N#Cc1cc(CN2CCN(C3(C(=O)c4ccccn4)CCOCC3)CC2)ccc1F` [Example 188, 2-fluoro-5-((4-(4-picolinoyltetrahydro-2H-pyran-4-yl)piperazin-1-yl)methyl)benzonitrile] showed a Ki of over 500 nM.
`CC(C)CCN1CCN([C@]2(C(=O)c3ccccn3)CCO[C@@H](C)C2)CC1` [Example 98] gave a Ki of under 500 nM.
`CC(C)OCCN(C)C1CN(C2(C(=O)c3ccccn3)CCOC(C)(C)C2)C1` (stereo not shown) [Example 23, (4-(3-((2-isopropoxyethyl)(methyl)amino)azetidin-1-yl)-2,2-dimethyltetrahydro-2H-pyran-4-yl)(pyridin-2-yl)methanone] gave a Ki of over 500 nM.
`CC1(C)CC(C(=O)c2ccccn2)(N2CCN(CCc3ncccc3Cl)CC2)CCO1` (stereo not shown) [Example 56, (4-(4-(2-(3-chloropyridin-2-yl)ethyl)piperazin-1-yl)-2,2-dimethyltetrahydro-2H-pyran-4-yl)(pyridin-2-yl)methanone] showed a Ki of over 500 nM.

Same assay, conditions: μ and σ1 dual binding, one class symbol for both Ki-σ1 (human σ1 receptor, A1) and Ki-μ (human μ-opioid receptor, A2)
With `CC(C)CCN(C)[C@H]1CCN([C@]2(C(=O)c3ccccn3)CCOC(C)(C)C2)C1` [Example 150, ((R)-4-((S)-3-(isopentyl(methyl)amino)pyrrolidin-1-yl)-2,2-dimethyltetrahydro-2H-pyran-4-yl)(pyridin-2-yl)methanone] the Ki was under 500 nM.
`CC1(C)CC(c2ccccc2)(N2CCN(Cc3ccccc3)CC2)CCO1` (stereo not shown) [Example 35, 1-benzyl-4-(2,2-dimethyl-4-phenyltetrahydro-2H-pyran-4-yl)piperazine] showed a Ki of under 500 nM.
Molecule `CC(C)OCCCN1CCC(C2(C(=O)c3ccccn3)CCOC(C)(C)C2)CC1` (stereo not shown) [Example 107, (4-(1-(3-isopropoxypropyl)piperidin-4-yl)-2,2-dimethyltetrahydro-2H-pyran-4-yl)(pyridin-2-yl)methanone] has a Ki of over 500 nM.
`CC(C)CCN(C)[C@@H]1CCN([C@@]2(C(=O)c3ccccn3)CCOC(C)(C)C2)C1` [Example 148, ((S)-4-((R)-3-(isopentyl(methyl)amino)pyrrolidin-1-yl)-2,2-dimethyltetrahydro-2H-pyran-4-yl)(pyridin-2-yl)methanone] gave a Ki of under 500 nM.
